Holding throughout (type): in vivo
In series [1] the test system is Echinochloa oryzacola Vasing. The series is described as follows: Test Example 1: herbicidal activity, application before weed generation in submerged conditions. The settings on record: Application herbicide amount 320 g/ha; Seventeenth Table. The essentials: (§1)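 Alluvial soil in Wagner pots flooded to 4 cm water depth; weed seeds sown and 2.5 leaf stage rice seedlings transplanted. Emulsion diluted in water applied to water surface on sowing day at stated g/ha. Greenhouse 25° C. to 30° C.; effects scored 0–5 by herbicidal ratio after three weeks.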

A further series deals with Monochoria vaginalis. The series is described as above. As to conditions: Application herbicide amount 320 g/ha; Seventeenth Table. Summed up: as §1
The subject of a further series is Scirpus juncoides. The description is as above. The settings on record: Application herbicide amount 320 g/ha; Seventeenth Table. Summed up: as §1
For the next series, the system named is Cyperus difformis. The experiment in a line: Test Example 3: herbicidal effect by application to foliage (Wagner pot, water depth 0.1-0.5 cm). As to conditions: Nineteenth Table; application to foliage; application herbicide amount 320 g/ha. The essentials:
(§2)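 Alluvial soil in 1/10000 are Wagner pots, sown and grown 14 days in a 25–30 °C greenhouse. An emulsifiable concentrate diluted in water to the set dose (g/ha) was sprayed on stems and leaves. Effect scored three weeks later on a 0–5 scale: 5 = ≥90% herbicidal ratio, 0 = ≤5%.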

The subject of series [2] is Echinochloa crus-galli var. crus-galli. The description is as above. The settings on record: Nineteenth Table; application to foliage; application herbicide amount 320 g/ha. The essentials:
as §2

The subject of the next series is Leptochloa chinensis. The description is as above. As to conditions: Nineteenth Table; application to foliage; application herbicide amount 320 g/ha. The essentials: as §2
A further series deals with Glycine max. The experiment in a line: Test Example 4: effect on crop by application to foliage (diluvial soil, plastic box). The settings on record: for d: effect on crop, Glycine max: application to foliage, application herbicide amount 320 g/ha; for c (Glycine max) effect on crop grade / d (Glycine max) effect on crop grade: foliage application; for c (Glycine max) effect on crop grade: 320 g/ha; for d (Glycine max) effect on crop grade: Application herbicide amount 320 g/ha. The essentials: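 Scores run from 0 (herbicidal ratio ≤5%) to 5 (≥90%, almost fully withered) and were assessed three weeks after foliar spraying. Seedlings had been raised for 14 days at 25-30° C in sterilized diluvial soil before treatment, with the emulsion diluted in water to the stated g/ha dose.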

With `CCOCc1nnc2c(C(=O)Nc3nnnn3C)ccc(C(F)(F)F)n12` [2-026], the “A: Echinochloa oryzicola Vasing. (herbicidal effect grade)” value in series [1] is 5 (Herbicidal ratio of 90% or more (almost completely withered)). In addition, the “C: Monochoria vaginalis (herbicidal effect grade)” value (from here on “C: Monochoria vaginalis”) in the series with Monochoria vaginalis is 4 (Herbicidal ratio of 70% or more and less than 90%). Further, in the series with Scirpus juncoides, the “B: Scirpus juncoides (herbicidal effect grade)” value (“B: Scirpus juncoides” below) was 5 (Herbicidal ratio of 90% or more (almost completely withered)). In addition, the “E (herbicidal effect grade)” value in the series with Cyperus difformis is reported as 5 (Herbicidal ratio of 90% or more (almost completely withered)). The “H (herbicidal effect grade)” value in series [2] was 5 (Herbicidal ratio of 90% or more (almost completely withered)). The “D (herbicidal effect grade)” value with Leptochloa chinensis is on record as 5 (Herbicidal ratio of 90% or more (almost completely withered)). The “d: effect on crop, Glycine max” value with Glycine max was 5 (Herbicidal ratio of 90% or more (almost completely withered)).

As for `CC[S+]([O-])c1nnc2c(C(=O)Nc3nnnn3C)ccc(C(F)(F)F)n12` (centres unmarked) [2-031], the “A: Echinochloa oryzicola Vasing. (herbicidal effect grade)” value in series [1] was 5 (Herbicidal ratio of 90% or more (almost completely withered)). Further, the “C: Monochoria vaginalis” value in the series on Monochoria vaginalis is given as 5 (Herbicidal ratio of 90% or more (almost completely withered)). Besides, the “B: Scirpus juncoides” value with Scirpus juncoides is reported as 5 (Herbicidal ratio of 90% or more (almost completely withered)). In the series with Cyperus difformis, the “E (herbicidal effect grade)” value is reported as 5 (Herbicidal ratio of 90% or more (almost completely withered)). In addition, in series [2], the “H (herbicidal effect grade)” value is reported as 5 (Herbicidal ratio of 90% or more (almost completely withered)). The “D (herbicidal effect grade)” value in the series with Leptochloa chinensis is given as 5 (Herbicidal ratio of 90% or more (almost completely withered)). The “c (Glycine max) effect on crop grade” value in the series with Glycine max is given as 5 (Herbicidal ratio of 90% or more (almost completely withered)).

For the compound `Cc1nnc(NC(=O)c2ccc(C(F)(F)F)n3c(NCC(F)(F)F)nnc23)o1` [1-131], the “A: Echinochloa oryzicola Vasing. (herbicidal effect grade)” value in series [1] was 2 (Herbicidal ratio of 20% or more and less than 40%). In addition, the “C: Monochoria vaginalis” value in the series on Monochoria vaginalis was 0 (Herbicidal ratio of 5% or less (almost no effect)). Also, the “B: Scirpus juncoides” value in the series on Scirpus juncoides is 1 (Herbicidal ratio of 5% or more and less than 20%). The “E (herbicidal effect grade)” value in the series with Cyperus difformis was 3 (Herbicidal ratio of 40% or more and less than 70%). In addition, the “H (herbicidal effect grade)” value in series [2] was 4 (Herbicidal ratio of 70% or more and less than 90%). Also, the “D (herbicidal effect grade)” value in the series with Leptochloa chinensis was 4 (Herbicidal ratio of 70% or more and less than 90%). Moreover, in the series with Glycine max, the “d (Glycine max) effect on crop grade” value is 3 (Herbicidal ratio of 40% or more and less than 70%).

As to `Cc1nnc(NC(=O)c2ccc(C(F)(F)F)n3c(N4CCCC4)nnc23)o1` [1-136], the “A: Echinochloa oryzicola Vasing. (herbicidal effect grade)” value in series [1] is reported as 5 (Herbicidal ratio of 90% or more (almost completely withered)). In addition, the “C: Monochoria vaginalis” value in the series on Monochoria vaginalis is 3 (Herbicidal ratio of 40% or more and less than 70%). For the same compound, in the series on Scirpus juncoides, the “B: Scirpus juncoides” value was 3 (Herbicidal ratio of 40% or more and less than 70%). The “E (herbicidal effect grade)” value in the series on Cyperus difformis is on record as 0 (Herbicidal ratio of 5% or less (almost no effect)). Moreover, the “H (herbicidal effect grade)” value in series [2] was 4 (Herbicidal ratio of 70% or more and less than 90%). For the same compound, the “D (herbicidal effect grade)” value in the series on Leptochloa chinensis was 4 (Herbicidal ratio of 70% or more and less than 90%). Also, in the series with Glycine max, the “d (Glycine max) effect on crop grade” value was 3 (Herbicidal ratio of 40% or more and less than 70%).

Consider `Cn1nnnc1NC(=O)c1ccc(C(F)(F)F)n2c(COc3ccccc3)nnc12` [2-020], for which the “A: Echinochloa oryzicola Vasing. (herbicidal effect grade)” value in series [1] is 3 (Herbicidal ratio of 40% or more and less than 70%). The “C: Monochoria vaginalis” value with Monochoria vaginalis is 2 (Herbicidal ratio of 20% or more and less than 40%). For the same compound, the “B: Scirpus juncoides” value with Scirpus juncoides is 2 (Herbicidal ratio of 20% or more and less than 40%). Further, in the series on Cyperus difformis, the “E (herbicidal effect grade)” value was 4 (Herbicidal ratio of 70% or more and less than 90%). In addition, the “H (herbicidal effect grade)” value in series [2] is 4 (Herbicidal ratio of 70% or more and less than 90%). In the series on Leptochloa chinensis, the “D (herbicidal effect grade)” value was 4 (Herbicidal ratio of 70% or more and less than 90%). Moreover, in the series with Glycine max, the “d: effect on crop, Glycine max” value was 3 (Herbicidal ratio of 40% or more and less than 70%).

For the compound `Cn1nnnc1NC(=O)c1ccc(C(F)(F)F)n2c(-c3ccc(Cl)cc3)nnc12` [2-012], the “A: Echinochloa oryzicola Vasing. (herbicidal effect grade)” value in series [1] was 5 (Herbicidal ratio of 90% or more (almost completely withered)). In addition, the “C: Monochoria vaginalis” value in the series with Monochoria vaginalis is 3 (Herbicidal ratio of 40% or more and less than 70%). Further, in the series with Scirpus juncoides, the “B: Scirpus juncoides” value was 4 (Herbicidal ratio of 70% or more and less than 90%). The “E (herbicidal effect grade)” value with Cyperus difformis is given as 5 (Herbicidal ratio of 90% or more (almost completely withered)). Also, in series [2], the “H (herbicidal effect grade)” value was 4 (Herbicidal ratio of 70% or more and less than 90%). Besides, in the series with Leptochloa chinensis, the “D (herbicidal effect grade)” value is 5 (Herbicidal ratio of 90% or more (almost completely withered)). The “d: effect on crop, Glycine max” value with Glycine max was 4 (Herbicidal ratio of 70% or more and less than 90%).

As for `O=C(Nc1nnco1)c1ccc(C(F)(F)F)n2c(N3CCOCC3)nnc12` [1-110], the “A: Echinochloa oryzicola Vasing. (herbicidal effect grade)” value in series [1] is recorded as 5 (Herbicidal ratio of 90% or more (almost completely withered)). In addition, the “C: Monochoria vaginalis” value with Monochoria vaginalis was 4 (Herbicidal ratio of 70% or more and less than 90%). Further, the “B: Scirpus juncoides” value with Scirpus juncoides is 4 (Herbicidal ratio of 70% or more and less than 90%). The “E (herbicidal effect grade)” value in the series on Cyperus difformis is reported as 5 (Herbicidal ratio of 90% or more (almost completely withered)). In addition, the “H (herbicidal effect grade)” value in series [2] is listed as 5 (Herbicidal ratio of 90% or more (almost completely withered)). The “D (herbicidal effect grade)” value with Leptochloa chinensis was 5 (Herbicidal ratio of 90% or more (almost completely withered)). Besides, in the series on Glycine max, the “d (Glycine max) effect on crop grade” value is 4 (Herbicidal ratio of 70% or more and less than 90%).

Take `COc1ccc(-c2nnc3c(C(=O)Nc4nnco4)ccc(C(F)(F)F)n23)cc1` [1-149]: the “A: Echinochloa oryzicola Vasing. (herbicidal effect grade)” value in series [1] was 5 (Herbicidal ratio of 90% or more (almost completely withered)). The “C: Monochoria vaginalis” value in the series on Monochoria vaginalis is 3 (Herbicidal ratio of 40% or more and less than 70%). For the same compound, the “B: Scirpus juncoides” value with Scirpus juncoides was 4 (Herbicidal ratio of 70% or more and less than 90%). For the same compound, the “E (herbicidal effect grade)” value with Cyperus difformis is 5 (Herbicidal ratio of 90% or more (almost completely withered)). The “H (herbicidal effect grade)” value in series [2] is listed as 5 (Herbicidal ratio of 90% or more (almost completely withered)). In addition, the “D (herbicidal effect grade)” value in the series on Leptochloa chinensis is 5 (Herbicidal ratio of 90% or more (almost completely withered)). Besides, the “d (Glycine max) effect on crop grade” value in the series with Glycine max is 3 (Herbicidal ratio of 40% or more and less than 70%).

Consider `Cn1nnnc1NC(=O)c1ccc(C(F)(F)F)n2c(C[S+](C)[O-])nnc12` (centres unmarked) [2-033], for which, in series [1], the “A: Echinochloa oryzicola Vasing. (herbicidal effect grade)” value is given as 5 (Herbicidal ratio of 90% or more (almost completely withered)). Further, the “C: Monochoria vaginalis” value in the series on Monochoria vaginalis was 5 (Herbicidal ratio of 90% or more (almost completely withered)). In addition, the “B: Scirpus juncoides” value with Scirpus juncoides was 4 (Herbicidal ratio of 70% or more and less than 90%). The “E (herbicidal effect grade)” value in the series on Cyperus difformis is reported as 5 (Herbicidal ratio of 90% or more (almost completely withered)). Moreover, the “H (herbicidal effect grade)” value in series [2] was 5 (Herbicidal ratio of 90% or more (almost completely withered)). Besides, the “D (herbicidal effect grade)” value in the series with Leptochloa chinensis is listed as 5 (Herbicidal ratio of 90% or more (almost completely withered)). Besides, the “c (Glycine max) effect on crop grade” value with Glycine max was 4 (Herbicidal ratio of 70% or more and less than 90%).

With `COc1ccc(Cc2nnc3c(C(=O)Nc4nnco4)ccc(C(F)(F)F)n23)cc1` [1-151], the “A: Echinochloa oryzicola Vasing. (herbicidal effect grade)” value in series [1] is listed as 5 (Herbicidal ratio of 90% or more (almost completely withered)). For the same compound, the “C: Monochoria vaginalis” value in the series with Monochoria vaginalis is 3 (Herbicidal ratio of 40% or more and less than 70%). Besides, the “B: Scirpus juncoides” value with Scirpus juncoides is given as 5 (Herbicidal ratio of 90% or more (almost completely withered)). Moreover, the “E (herbicidal effect grade)” value with Cyperus difformis was 4 (Herbicidal ratio of 70% or more and less than 90%). For the same compound, in series [2], the “H (herbicidal effect grade)” value is given as 5 (Herbicidal ratio of 90% or more (almost completely withered)). For the same compound, the “D (herbicidal effect grade)” value with Leptochloa chinensis is 4 (Herbicidal ratio of 70% or more and less than 90%). Besides, the “d (Glycine max) effect on crop grade” value in the series with Glycine max was 4 (Herbicidal ratio of 70% or more and less than 90%).

Turning to `COCCOCc1nnc2c(C(=O)Nc3nnnn3C)ccc(C(F)(F)F)n12` [2-014], the “A: Echinochloa oryzicola Vasing. (herbicidal effect grade)” value in series [1] is on record as 5 (Herbicidal ratio of 90% or more (almost completely withered)). Also, in the series on Monochoria vaginalis, the “C: Monochoria vaginalis” value is given as 5 (Herbicidal ratio of 90% or more (almost completely withered)). In addition, the “B: Scirpus juncoides” value with Scirpus juncoides is listed as 5 (Herbicidal ratio of 90% or more (almost completely withered)). In the series with Cyperus difformis, the “E (herbicidal effect grade)” value is listed as 5 (Herbicidal ratio of 90% or more (almost completely withered)). Besides, in series [2], the “H (herbicidal effect grade)” value is 5 (Herbicidal ratio of 90% or more (almost completely withered)). In addition, the “D (herbicidal effect grade)” value in the series on Leptochloa chinensis is 5 (Herbicidal ratio of 90% or more (almost completely withered)). Moreover, the “d: effect on crop, Glycine max” value in the series with Glycine max was 4 (Herbicidal ratio of 70% or more and less than 90%).

These data come from patent publication US9708314B2, “Heterocyclic amide compound” (NISSAN CHEMICAL INDUSTRIES, LTD., priority 2013, dated 2017).
